Reference: patent US20230069722A1, “TUBULYSINS AND PROTEIN-TUBULYSIN CONJUGATES” (priority 2020, published 2023)
pIC50: −log10 of the molar value. Like-named read-outs stand apart in the source and are kept apart here. Where a SMILES comes first, the peptide text is derived from it. [ ]: non-standard residue; d: D form. The star is where a group is joined. Dolaproine = CO[C@@H]([C@@H]1CCCN1)[C@@H](C)C(=O)O; Dil = CC[C@H](C)[C@H](NC)[C@@H](CC(=O)O)OC; X1 = C[C@@H](N*)[C@@H](O)c1ccccc1; NMeV = CN[C@H](C(=O)O)C(C)C

How the values were obtained:
HCT15 cells = experiment: MDR cell based killing assay, HCT15 cells with or without Verapamil (CellTiter-Glo); set-up: species or system human; conditions: for pIC50: Homo sapiens; for HCT-15 with verapamil Ratio to Xa = H / HCT-15 Ratio to Xa = H: IC50 ratio to parent payload with Xa = H; for HCT-15 Ratio to Xa = H: without verapamil
Outline: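 CellTiter-Glo luminescence after 5-day exposure gave viability of 1000 HCT15 cells per well, grown in RPMI/10% FBS ± 5 ug/mL Verapamil. Payload tested from 100 nM down to 15 pM in threefold steps; four-parameter logistic IC50 in molar; MDR shift expressed as −Verapamil/+Verapamil IC50 ratio.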

[1] = test system: SK-BR-3 human breast adenocarcinoma cell line; experiment: SK-BR-3 anti-proliferation / cell kill assay (CellTiter-Glo, 144 hrs); assay type: cell-based; conditions: for pIC50: Homo sapiens, SK-BR-3, read-out: SK-BR-3 IC50; for SK-BR-3 Ratio to Xa = H: IC50 ratio to parent payload with Xa = H
Experimental: Anti-proliferation assays were performed using a SK-BR-3 human breast adenocarcinoma (pleural effusion) cell line. The cells were grown in McCoy's 5a Medium supplemented with 10% FBS, penicillin/streptomycin and L-glutamine. Cells were seeded 1000/well in 96-well plate in 80ul complete growth media one day prior to adding ADCs and incubated at 37° C. 5% CO2 overnight.
The ADCs were 1:3 serially diluted 10 points in assay media (Opti-MEM+0.1% BSA). The concentrations of the testing ADCs cover the range of 1 nM to ˜1000 nM and also starting from different concentrations based on the cell killing potency in order to see EC50 covers, leaving the last well (10th) as blank (no ADC or compound). ADCs were first 1:3 serially diluted 10 points in DMSO starting from […] (the starting concentration of each ADC is different according to the EC50s), leaving the last well as blank (containing only DMSO). 10 μl DMSO-diluted compound was transferred to 990 μl assay media (Opti-MEM+0.1% BSA) in a 96-well deep well dilution plate. 20 μl assay media-diluted ADC was added to cells. Cells were incubated at 37° C. […] for 6 days (144 hrs). Plates were developed by adding 100 μl CTG reagent/well to the cells CellTiter-Glo®, from Promega, Cat. No G7573), shaken at room temperature for 10 min, sealed with white adhesive bottom seal and luminescence was read with Envision. Cell kill %=[1−(T144sample−T144blank)/(T144DMSO−T144blank)]×100%, wherein T144 is the data at 144 hours.
The table below provides the drug-antibody ratios (DARs) for conjugates 1-37, along with the EC50 results from the SKBR assays for the same conjugates. The following linker-payloads (from Table P1) were prepared as described in PCT/US2019/068185, the content of which is hereby incorporated by reference in its entirety: LP4-Ve, LP4-Ve, LP25-Ve, LP25-Ve, LP26-Ve, LP26-Ve, LP17-Ve, LP13-Ve, LP19-Ve, LP2-Ve, LP21-Ve, LP6-Vb, LP24-Vb, LP23-Vb, and LP15-VIh.

C4-2 cells [2] = experiment: ADC cell based killing assay, C4-2 cells (anti-STEAP2 ADCs); set-up: species or system human
Experimental: (§1) To test the ability of the disclosed tubulysin payloads or prodrug payloads to kill human cell lines, an in vitro cytotoxicity assay can be performed. In vitro cytotoxicity of the disclosed payloads, as well as reference compounds, are evaluated using the CellTiter-Glo Assay Kit (Promega, Cat # G7573), in which the quantity of ATP present is used to determine the number of viable cells in culture. For the assay, C4-2, HEK293, or T47D cells are seeded at 4000 cells/well on Nunclon white 96-well plates in complete growth medium (DME high glucose:Ham's F12 at 4:1, 10% FBS, 100 units/ml Penicillin, 100 ug/ml streptomycin, 53 ug/ml glutatmine, 10 ug/ml insulin, 220 ng/ml biotin, 12.5 pg/ml T3, 12.5 ug/ml Adenine, 4 ug/ml transferrin for C42 cells; DME high glucose, 10% FBS, 100 units/ml Penicillin, 100 ug/ml streptomycin, 53 ug/ml glutatmine for HEK293; RPMI, 10% FBS, 100 units/ml Penicillin, 100 ug/ml streptomycin, 53 ug/ml glutatmine, 10 ug/ml insulin, 10 mM HEPEs, 200 nM Sodium Pyruvate for T47D cells) and grown overnight at 37° C. in 5% CO2. […] Relative luminescence units (RLU) can be determined on a Victor plate reader (PerkinElmer). The IC50 values are determined from a four-parameter logistic equation over a 10-point response curve (GraphPad Prism). […]

C4-2 cells [3] = experiment: Cell-based killing assay of payloads, C4-2 cells (CellTiter-Glo); set-up: species or system human
Experimental: as §1

[4] = HCT-15, read-out: HCT-15 with verapamil IC50
[5] = at the maximum concentration tested

| SMILES | pIC50 (HCT15 cells; HCT-15, read-out: HCT-15 IC50) | pIC50 (HCT15 cells; [4]) | HCT-15 with verapamil Ratio to Xa = H (HCT15 cells) [x] | HCT-15 Ratio to Xa = H (HCT15 cells) [x] | pIC50 [1] | SK-BR-3 Ratio to Xa = H [1] [x] | HCT-15 IC50/HCT-15+Verapamil IC50 ratio (HCT15 cells; IC50 without Verapamil divided by IC50 with Verapamil) | pIC50 (C4-2 cells [2]; ADCs and reference payload) | maximum percent killing, C4-2 cells (C4-2 cells [2]; [5]) [%] | pIC50 (C4-2 cells [3]; 5-day incubation) | maximum % cell killing, C4-2 cells (C4-2 cells [3]; [5]) [%] |
| --- | --- | --- | --- | --- | --- | --- | --- | --- | --- | --- | --- |
| CCCCCCN(C(=O)[C@@H](NC(=O)[C@H]1CCCCN1C)[C@@H](C)CC)[C@H](C[C@@H](OC(C)=O)c1nc(C(=O)N[C@@H](Cc2ccc(NC(=O)CN)cc2)CC(C)(C)C(=O)O)cs1)C(C)C [Compound P28, (4S)-4-({2-[(1R,3R)-1-(acetyloxy)-3-[(2S,3S)—N-hexyl-3-methyl-2-{[(2R)-1-methylpiperidin-2-yl]formamido}pentanamido]-4-methylpentyl]-1,3-thiazol-4-yl}formamido)-5-[4-(2-aminoacetamido)phenyl]-2,2-dimethylpentanoic Acid] | 9.77 | 9.96 | 5.8 | 6.9 | 10.52 | 2.5 | – | – | – | – | – |
| CCCCCCN(C(=O)[C@@H](NC(=O)[C@H]1CCCCN1C)[C@@H](C)CC)[C@H](C[C@@H](O)c1nc(C(=O)N[C@@H](Cc2ccc(NC(=O)CN)c(F)c2)CC(C)(C)C(=O)O)cs1)C(C)C [Compound P24, (4S)-5-[4-(2-aminoacetamido)-3-fluorophenyl]-4-({2-[(1R,3R)-3-[(2S,3S)—N-hexyl-3-methyl-2-{[(2R)-1-methylpiperidin-2-yl]formamido}pentanamido]-1-hydroxy-4-methylpentyl]-1,3-thiazol-4-yl}formamido)-2,2-dimethylpentanoic Acid] | 7.81 | 9.09 | 3.2 | 5.2 | 9.07 | 22 | – | – | – | – | – |
| CCCCCCN(C(=O)[C@@H](NC(=O)[C@H]1CCCCN1C)[C@@H](C)CC)[C@H](C[C@@H](OCC)c1nc(C(=O)N[C@@H](Cc2ccc(NC(=O)CN)c(F)c2)CC(C)(C)C(=O)O)cs1)C(C)C [Compound P26, (4S)-5-[4-(2-aminoacetamido)-3-fluorophenyl]-4-({2-[(1R,3R)-1-ethoxy-3-[(2S,3S)—N-hexyl-3-methyl-2-{[(2R)-1-methylpiperidin-2-yl]formamido}pentanamido]-4-methylpentyl]-1,3-thiazol-4-yl}formamido)-2,2-dimethylpentanoic Acid] | 9.60 | 10.30 | 2.8 | 4.9 | 10.30 | 2.6 | – | – | – | – | – |
| CCCCCCN(C(=O)[C@@H](NC(=O)[C@H]1CCCCN1C)[C@@H](C)CC)[C@H](C[C@@H](OCC)c1nc(C(=O)N[C@@H](Cc2ccc(NC(=O)CN)cc2)CC(C)(C)C(=O)O)cs1)C(C)C [Compound P31, (4S)-5-[4-(2-aminoacetamido)phenyl]-4-({2-[(1R,3R)-1-ethoxy-3-[(2S,3S)—N-hexyl-3-methyl-2-{[(2R)-1-methylpiperidin-2-yl]formamido}pentanamido]-4-methylpentyl]-1,3-thiazol-4-yl}formamido)-2,2-dimethylpentanoic Acid] | 9.09 | 9.54 | 4.3 | 9.7 | 10.15 | 2.4 | – | – | – | – | – |
| CCCCCCN(C(=O)[C@@H](NC(=O)[C@H]1CCCCN1C)[C@@H](C)CC)[C@H](C[C@@H](OC(C)=O)c1nc(C(=O)N[C@@H](Cc2ccc(NCCN)cc2)CC(C)(C)C(=O)O)cs1)C(C)C [Compound P30, (4S)-4-({2-[(1R,3R)-1-(acetyloxy)-3-[(2S,3S)—N-hexyl-3-methyl-2-{[(2R)-1-methylpiperidin-2-yl]formamido}pentanamido]-4-methylpentyl]-1,3-thiazol-4-yl}formamido)-5-{4-[(2-aminoethyl)amino]phenyl}-2,2-dimethylpentanoic Acid] | 8.58 | 9.38 | 22 | 155 | 9.35 | 34 | – | – | – | – | – |
| CC[C@H](C)[C@@H]([C@@H](CC(=O)N1CCC[C@H]1[C@H](OC)[C@@H](C)C(=O)N[C@H](C)[C@@H](O)c1ccccc1)OC)N(C)C(=O)[C@@H](NC(=O)[C@@H](NC)C(C)C)C(C)C [MMAE, Monomethyl auristatin E] (H-[NMeV]V[Dil][Dolaproine]-X1) | – | – | – | – | – | – | 23.7 | 9.66 | 99 | 9.55 | 93.7 |
| CCCCCCN(C(=O)[C@@H](NC(=O)[C@H]1CCCCN1)[C@@H](C)CC)[C@H](C[C@@H](OCC)c1nc(C(=O)N[C@@H](Cc2ccc(NC(=O)CN)cc2)CC(C)(C)C(=O)O)cs1)C(C)C [Compound P32, (4S)-5-[4-(2-aminoacetamido)phenyl]-4-({2-[(1R,3R)-1-ethoxy-3-[(2S,3S)—N-hexyl-3-methyl-2-[(2R)-piperidin-2-ylformamido]pentanamido]-4-methylpentyl]-1,3-thiazol-4-yl}formamido)-2,2-dimethylpentanoic Acid] | < 7.00 | < 7.00 | – | – | < 9.00 | – | – | – | – | – | – |
| CCCCCCN(C(=O)[C@@H](NC(=O)[C@H]1CCCCN1)[C@@H](C)CC)[C@H](C[C@@H](OC(C)=O)c1nc(C(=O)N[C@@H](Cc2ccc(NC(=O)CN)c(F)c2)CC(C)(C)C(=O)O)cs1)C(C)C [Compound P27, (4S)-4-({2-[(1R,3R)-1-(acetyloxy)-3-[(2S,3S)—N-hexyl-3-methyl-2-[(2R)-piperidin-2-ylformamido]pentanamido]-4-methylpentyl]-1,3-thiazol-4-yl}formamido)-5-[4-(2-aminoacetamido)-3-fluorophenyl]-2,2-dimethylpentanoic Acid] | 8.83 | 10.05 | 3.8 | 6.4 | 9.96 | 3.9 | – | – | – | – | – |
